11 compounds from patent publication US20240270759A1, “Preparation of SHP2 phosphatase inhibitors and its applications” (Ya Therapeutics Inc, priority 2021, published 2024) can be followed below.

Where only a bound is given, the exact number is not on record here.

The term IC50 denotes the concentration at which inhibition is half-maximal.

This test addresses T1, SHP2 full-length protein (Homo sapiens, UniProt Q06124).
T1 construct: purchased BPS Bioscience #79330
T1 sequence (Q06124 1-593): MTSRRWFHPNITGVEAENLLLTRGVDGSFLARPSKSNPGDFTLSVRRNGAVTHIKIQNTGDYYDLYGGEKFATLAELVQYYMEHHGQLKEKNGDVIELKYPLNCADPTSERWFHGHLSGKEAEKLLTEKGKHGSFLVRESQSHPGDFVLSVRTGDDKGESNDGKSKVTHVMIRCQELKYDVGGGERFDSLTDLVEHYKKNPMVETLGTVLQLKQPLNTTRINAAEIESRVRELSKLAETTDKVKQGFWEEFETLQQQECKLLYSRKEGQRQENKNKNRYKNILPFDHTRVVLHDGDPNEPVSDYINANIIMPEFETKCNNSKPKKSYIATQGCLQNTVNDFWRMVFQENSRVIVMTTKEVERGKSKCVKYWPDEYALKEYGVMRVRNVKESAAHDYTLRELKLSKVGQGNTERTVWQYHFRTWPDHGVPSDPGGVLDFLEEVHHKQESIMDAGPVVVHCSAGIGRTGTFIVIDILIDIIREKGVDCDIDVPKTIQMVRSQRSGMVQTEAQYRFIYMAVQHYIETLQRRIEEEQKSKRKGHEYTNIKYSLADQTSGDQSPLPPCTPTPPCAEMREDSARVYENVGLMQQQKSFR
Briefly: SHP2 allosteric inhibition experiment (Homogeneous Full Length SHP-2 Assay Kit). Format: biochemical. As to conditions: full-length SHP2 0.06 nM with SHP-2 activating peptide; ten-point, 1 μM to 0.05 nM; read-out: IC50 Values of Compounds Inhibiting SHP2. The text has this:
The following further describes and explains the present invention in combination with test examples, but these examples are not meant to limit the scope of the present invention. SHP2 allosteric inhibition experiment
The purpose of this test is to measure the ability of the compounds to inhibit the allosteric activity of the SHP2 full-length protein. Experimental equipment: a centrifuge (5810R) is purchased from Eppendorf Company; pipettes are purchased from Eppendorf Company and Rainin Company, and microplate readers are purchased from BioTek Company of the United States, SynergyH1 multimode microplate reader.
Experimental method: Homogeneous Full Length SHP-2 Assay Kit (BPS Bioscience, #79330) is used to detect SHP2 activity in vitro. First, add 18 μL of Master Mix to 96-well low-adsorption microplate (NUNC, #267342), that is, 0.5 μL of SHP-2 activating Peptide and 5 mM DTT are included in the reaction buffer with a final concentration of 1×. After centrifugation, add 5 μL of the compound to be tested in DMSO (final DMSO content is 1% (V/V) in each well: dissolve the compound to be tested in DMSO to 1 mM, conduct triple dilution with a total of 10 concentration levels ranging from 1 μM to 0.05 nM in the reaction buffer. After diluting SHP2 in 1× reaction buffer to a final concentration of 0.06 nM, add it to the reaction microwell plate, 2 μL per well. Set a full activity control ([…]) and a full inhibition control (without SHP-2) on the reaction plate, and incubate the reaction mixture at room temperature for 60 minutes after centrifugation.
After incubation, add 25 μL of Substrate solution to each well, containing Substrate with a final concentration of 10 μM and DTT with a final concentration of 5 mM, and after centrifugation, continue to incubate at room temperature for 30 minutes. After the reaction, set the excitation wavelength at 340 nm, the emission wavelength at 455 nm, and the gain value to 75 on the Synergy H1 microplate reader (Biotek) for reading.
Take the full activity control and full inhibition control as the values of Max and Min, and calculate the percentage inhibition rate of the wells treated with the compound based on the positive control wells (DMSO control wells) and negative control wells (no kinase added) on the reaction plate, (inhibition rate percentage=100−[(test compound−Min average value)/(Max average value−Min average value)]×100%. IC50 values of test compounds are calculated by fitting percentage of inhibition and ten-point concentration data to a 4-parameter nonlinear logic formula using GraphPad prism.
In the case of `C[C@@H]1OCC2(CCN(c3ccc(Sc4cccc(-c5cnccn5)c4Cl)nn3)CC2)[C@@H]1N` [Compound 132, (3S,4S)-8-(3-((2-chloro-3-(pyrazine-2-yl)phenyl)mercapto)pyridazine-6-yl)-3-methyl-2-oxa-8-azaspiro[4.5]decane-4-amine], the 50% inhibitory concentration (IC50) is no more than 0.01 µM.

Turning to `C[C@@H]1OCC2(CCN(c3ccc4nc(Sc5cccc(-c6ccn(C)n6)c5Cl)cnc4n3)CC2)[C@@H]1N` [Compound 91, (3S,4S)-8-(2-((2-chloro-3-(1-methyl-1H-pyrazole-3-yl)phenyl)mercapto)pyridinyl[2,3-b]pyrazine-6-yl)-3-methyl-2-oxa-8-azaspiro[4.5]decane-4-amine], the half-inhibitory concentration (IC50) was no more than 0.01 µM. For the compound `C[C@@H]1OCC2(CCN(c3ncc(Sc4cccc(NC(=O)c5c(O)nc6n(c5=O)CCCC6)c4Cl)cn3)CC2)[C@@H]1N` [Compound 114, N-(3-((2-((3S,4S)-4-amino-3-methyl-2-oxa-8-azaspiro[4.5]decane-8-yl)pyrimidine-5-yl)mercapto)-2-chlorophenyl)-2-hydroxyl-4-oxo-6,7,8,9-tetrahydro-4H-pyridinyl[1,2-a]pyrimidine-3-carboxamide], the IC50 lay within 0.01 to 0.1 µM.

“N-(3-((5-((3S,4S)-4-amino-3-methyl-2-oxa-8-azaspiro[4.5]decane-8-yl)-1,2,4-triazine-3-yl)mercapto)-2-chlorobenzene)-2-hydroxy-4-oxa-6,7,8,9-tetrahydro-4H-pyridinyl[1,2-a]pyrimidine-3-carboxamide [Compound 138]”: the 50% inhibitory concentration (IC50) was no more than 0.01 µM. The figure for `C[C@@H]1OCC2(CCN(c3ncc(Sc4cccc(-c5cncnc5)c4Cl)cn3)CC2)[C@@H]1N` [Compound 115, (3S,4S)-8-(5-((2-chloro-3-(pyrimidine-5-yl)phenyl)mercapto)pyrimidine-2-yl)-3-methyl-2-oxa-8-azaspiro[4.5]decane-4-amine] is no more than 0.01 µM. For the compound `C[C@@H]1OCC2(CCN(c3cnc4nc(Sc5cccc(NC(=O)c6c(O)nc7n(c6=O)CCCC7)c5Cl)ccc4n3)CC2)[C@@H]1N` [Compound 98, N-(3-((2-((3S,4S)-4-amino-3-methyl-2-oxa-8-azaspiro[4.5]decane-8-yl)pyridinyl[2,3-b]pyrazine-6-yl)mercapto)-2-chlorophenyl)-2-hydroxy-4-oxo-6,7,8,9-tetrahydro-4H-p yridinyl[1,2-a]pyrimidine-3-carboxamide], the 50% inhibitory concentration (IC50) was no more than 0.01 µM. With `C[C@@H]1OCC2(CCN(c3ccc4nc(Sc5cccc(NC(=O)c6cnccn6)c5Cl)ncc4n3)CC2)[C@@H]1N` [Compound 86, N-(3-((6-((3S,4S)-4-amino-3-methyl-2-oxa-8-azaspiro[4.5]decane-8-yl)pyridinyl[3,2-d]pyrimidine-2-yl)mercapto)-2-chlorophenyl)pyrazine-2-carboxamide] the figure was no more than 0.01 µM; with `CC(C)n1ccc(-c2cccc(Sc3cnc4nc(N5CCC6(CC5)CO[C@@H](C)[C@H]6N)ncc4n3)c2Cl)n1` [Compound 70, (3S,4S)-8-(6-((2-chloro-3-(1-isopropyl-1H-pyrazole-3-yl)phenyl)mercapto)pteridine-2-yl)-3-methyl-2-oxa-8-azaspiro[4.5]decane-4-amine], no more than 0.01 µM; with `C[C@@H]1OCC2(CCN(c3ncc4nc(Sc5cccc(Oc6ccn(C)n6)c5Cl)cnc4n3)CC2)[C@@H]1N` [Compound 93], no more than 0.01 µM. With `C[C@@H]1OCC2(CCN(c3cnc4nc(Sc5cccc(-c6ccncn6)c5Cl)ncc4n3)CC2)[C@@H]1N` [Compound 75, (3S,4S)-8-(2-((2-chloro-3-(pyrimidine-4-yl)phenyl)mercapto)pteridine-6-yl)-3-methyl-2-oxa-8-azaspiro[4.5]decane-4-amine] the figure was no more than 0.01 µM; with `NC1c2cccnc2CC12CCN(c1ccc3c(=O)n(-c4cccc(Cl)c4Cl)c(=O)[nH]c3c1)CC2` (stereo in doubt) [Compound 7, (S)-7-(5-Amino-5,7-dihydrospiro [cyclopenta[b]pyridine-6,4′-piperidine]-1′-yl)-3-(2,3-dichlorophenyl)quinazoline-2,4(1H,3H)-dione], no more than 0.01 µM.
